Values joined by “and” are separate entries in the source; they are usually repeats but may differ in a detail not shown here. Equal entries are not always repeated.
Experiments:
[1] = test system: procollagen Iα1 secretion, primary human hepatic stellate cells; test: Procollagen Iα1 secretion by TGFβ1-stimulated primary human hepatic stellate cells, ELISA; format: cell-based; settings: for procollagen Iα1 secretion: primary human hepatic stellate cells, three healthy donors, TGFβ1 3 ng/mL 24 h, summary in words
Description: Primary human hepatic stellate cells were obtained from Samsara Sciences. Cells were grown in Complete HSC Medium to ˜80% confluence in T75 or T150 flasks below passage 10 were seeded into sterile, collagen I coated, 96-well optical plastic microplates (ThermoScientific, 152036) and incubated overnight at 37° C., 5% CO2 in a humidified incubator in DMEM with 2% Fetal Bovine Serum and 1% Antibiotic-Antimycotic. After the overnight incubation, plates are washed and pretreated with medium±single amino acid dropout, 1×HMDB DMEM±supplemental amino acid dose for 10.5 hours. After 10.5 hour pretreatment, the same pretreatment medium supplemented with 3 ng/mL TGFβ1, was applied and incubated for 24 hours at 37° C., 5% CO2. After 24 hour stimulus, supernatant was removed, RNA was extracted and gene expression was evaluated using the ΔΔCq method within each single amino acid dropout and supplementation by normalizing to its own 1×HMDB concentration.
Human Procollagen 1α1 was measured from the supernatant by ELISA (Human ProCollagen I alpha 1 DuoSet ELISA, R&D Systems) at 1/100 dilution in 1× Reagent Diluent (Reagent Ancillary Kit 2, R&D Systems).
Tables 32, 33, 33-1, 33-2, 33-3, and 33-4 show the fold change in procollagen Iα1 in primary human hepatic stellate cells from three different healthy donors normalized to their respective baseline amino acid conditions. Statistical significance calculated by one-way

STAM mice (NASH) = test: STAM model of NASH (Example 2): NAFLD activity score, Sirius red, α-SMA staining; format: in vivo, mouse; parameters: key to NAFLD Activity: Ballooning Score, mean / NAFLD Activity: Steatosis Score, mean / NAFLD Activity: Inflammation Score, mean / NAFLD Activity Score: raw data / NAFLD Activity: Steatosis Score: raw data / NAFLD Activity: Ballooning Score: raw data: NAS = steatosis (0-3) + inflammation (0-2) + ballooning (0-2)
Description: Amino Acid Composition A-1 and Obeticholic acid (6α-ethyl-chenodeoxycholic acid; “OCA”) were tested for their ability to treat NASH in the STAM™ model (Stelic Institute & Co., Tokyo, Japan; Saito K. et al., 2015 Sci Rep 5: 12466). Two additional groups of normal C57BL/6 mice fed standard chow and vehicle treated STAM™ mice were included as controls. All animals receiving treatment or vehicle were treated starting at 6 weeks until 9 weeks of age. Compounds were administered via oral gavage, with a dose volume of 10 ml/kg. Amino Acid Composition A-1 was administered twice daily at a dose of 1500 mg/kg, and OCA was administered once daily at a dose of 30 mg/kg.
STAM™ is a model for non-alcoholic steatohepatitis (NASH) and hepatocellular carcinoma (HCC), developed by SMC Laboratories, Inc. and created by the combination of chemical and dietary interventions using C57BL/6 mice (Saito K. et al., 2015 Sci Rep 5: 12466). Mice are treated with a low dose of streptozotocin at birth and fed a high fat diet starting at 4 weeks. Evidence of fatty liver is present by 5 weeks, followed by NASH by 7 weeks and fibrosis by 9 weeks.
NASH was induced in 53 male mice by a single subcutaneous injection of 200 μg streptozotocin (STZ, Sigma-Aldrich, USA) solution 2 days after birth and feeding with high fat diet (HFD, 57 kcal % fat, Cat #HFD32, CLEA Japan, Japan) after 4 weeks of age.
Amino Acid Composition A-1, OCA and Vehicle (described below) were administered by oral route in a volume of 10 mL/kg. Amino Acid Composition A-1 was solubilized in deionized water to 150 mg/ml (10×). OCA (Advanced ChemBlocks Inc.) was resuspended in 0.5% methylcellulose in water to 3 mg/ml (10×). Amino Acid Composition A-1 was administered at a dose of 1500 mg/kg twice daily (9 am and 7 pm). OCA was administered at a dose of 30 mg/kg once daily (9 am).
Liver samples from mice in Group 2 (Vehicle), 3 (Amino Acid Composition A-1) and 4 (OCA) were used for the following assays. For HE staining, sections were cut from paraffin blocks of liver tissue prefixed in Bouin's solution and stained with Lillie-Mayer's Hematoxylin (Muto Pure Chemicals Co., Ltd., Japan) and eosin solution (Wako Pure Chemical Industries). NAFLD Activity score (NAS) was calculated according to the criteria of Kleiner (Kleiner D. E. et al., Hepatology, 2005; 41:1313).
Group 3: Amino Acid Composition A-1: Ten NASH mice were orally administered water for irrigation supplemented with Amino Acid Composition A-1 at a dose of 1500 mg/kg twice daily (9 am and 7 pm) from 6 to 9 weeks of age.
Group 4: OCA: Ten NASH mice were orally administered 0.5% methylcellulose supplemented with OCA at a dose of 30 mg/kg once daily (9 am) from 6 to 9 weeks of age.
The non-alcoholic fatty liver disease (NAFLD) activity score was assessed via histological analysis and grading of H&E stained liver sections from each animal. This score is the sum of three individual scores that grade the degree of steatosis (0-3), inflammation (0-2), and hepatocyte ballooning (0-2). All tissues were graded using the scoring criteria of Kleiner et al. (Kleiner et al. Hepatology. 2005; 41(6): 1313-21). Data are mean±standard deviation (stdev). […] Both Amino Acid Composition A-1 and OCA were statistically different from vehicle for NAFLD Activity Score when compared using Dunnett's multiple comparisons test (Amino Acid Composition A-1 p=0.0001, OCA p=0.0001).
Fibrosis was assessed by analysis of Sirius red positively stained cell area from stained liver sections from each animal. Images were quantified using the percent of positively stained area was used as a measure of fibrosis. Data are mean±standard deviation (stdev). […] Amino Acid Composition A-1 and OCA were statistically different from vehicle when compared using Dunnett's multiple comparisons test (Amino Acid Composition A-1 p=0.00494, OCA p<0.016).
Liver sections of all mice were stained for the marker α-smooth muscle actin (aSMA) to identify activated hepatic stellate cells. […]

[2] = STAM mice liver sections, A-1 1500 mg/kg twice daily, OCA 30 mg/kg once daily
[3] = STAM mice treated 6 to 9 weeks of age, A-1 1500 mg/kg twice daily, OCA 30 mg/kg once daily

In the case of `CC[C@H](C)[C@H](N)C(=O)O` [ILE, isoleucine], the “Procollagen Ia1 Secretion (Fold Change of 1X), Mean” value ([1]; first donor, 66 μM (baseline, reference)) is reported as 1.0000 fold, the “Procollagen Ia1 Secretion (Fold Change of 1X), Mean” value ([1]; first donor, 1328 μM) is reported as 0.9229 fold and the “Procollagen Ia1 Secretion (Fold Change of 1X), Mean” value ([1]; first donor, 3320 μM) is reported as 1.1366 fold. For the same molecule, the “Procollagen Ia1 Secretion (Fold Change of 1X), Mean” value ([1]; first donor, 6639 μM) was 1.2144 fold, the “procollagen Iα1 secretion” value [1] was “significantly increased procollagen Iα1 secretion in two of three donors” and the “Procollagen Ia1 Secretion (Fold Change of 1X), Mean” value ([1]; second donor, single amino acid, 66 μM (1X reference)) was 1.0000 fold change. For the same molecule, the “Procollagen Ia1 Secretion (Fold Change of 1X), Mean” value ([1]; second donor, single amino acid, 1328 μM) was 1.4811 fold change, the “Procollagen Ia1 Secretion (Fold Change of 1X), Mean” value ([1]; second donor, single amino acid, 3320 μM) was 1.4940 fold change and the “Procollagen Ia1 Secretion (Fold Change of 1X), Mean” value ([1]; second donor, single amino acid, 6639 μM) was 1.5423 fold change. For the same molecule, the “Procollagen Ia1 Secretion (Fold Change of 1X), Mean” value ([1]; third donor, single amino acid, 66 μM (1X reference)) was 1.0000 fold change, the “Procollagen Ia1 Secretion (Fold Change of 1X), Mean” value ([1]; third donor, single amino acid, 1328 μM) was 1.2687 fold change and the “Procollagen Ia1 Secretion (Fold Change of 1X), Mean” value ([1]; third donor, single amino acid, 3320 μM) was 1.2703 fold change. For the same molecule, the “Procollagen Ia1 Secretion (Fold Change of 1X), Mean” value ([1]; third donor, single amino acid, 6639 μM) was 1.4465 fold change.
`CC[C@H]1[C@@H](O)[C@@H]2[C@H](CC[C@]3(C)[C@@H]([C@H](C)CCC(=O)O)CC[C@@H]23)[C@@]2(C)CC[C@@H](O)C[C@@H]12` [OCA, 6α-ethyl-chenodeoxycholic acid] was tested, and the “Activated hepatic stellate cells (mean positively stained area, α-smooth muscle actin)” value (STAM mice (NASH); [2]) was 1.562+/−0.31% and 1.562%, the “Fibrosis (mean positively stained area, Sirius red)” value (STAM mice (NASH); [2]) was 0.776+/−0.25% and 0.776% and the “NAFLD Activity: Ballooning Score, mean” value (STAM mice (NASH); [3]) was 0.3+/−0.48 and 0.3. The “NAFLD Activity: Inflammation Score, mean” value (STAM mice (NASH); [3]) was 1.8, the “NAFLD Activity: Steatosis Score, mean” value (STAM mice (NASH); [3]) was 0.8 and the “NAFLD Activity Score (NAS), mean” value (STAM mice (NASH); STAM mice treated 6 to 9 weeks of age, A-1 1500 mg/kg twice daily, OCA 30 mg/kg once daily, oral) was 2.9+/−0.74 and 2.9. For the same molecule, the “Activated hepatic stellate cells (positively stained area, α-smooth muscle actin): raw data” value (STAM mice (NASH); individual STAM mice) was 1.51% and 1.49% (2×) and 1.17% and 1.5% and 1.13% and 2.03% and 1.87% and 1.97% and 1.46%, the “Fibrosis (positively stained area, Sirius red): raw data” value (STAM mice (NASH); individual STAM mice) was 1.1% and 1.19% and 0.89% and 0.91% and 0.66% and 0.72% and 0.68% and 0.69% and 0.36% and 0.56% and the “NAFLD Activity Score: raw data” value (STAM mice (NASH); individual STAM mice) was 2 (3×) and 4 (2×) and 3 (5×). For the same molecule, the “NAFLD Activity: Ballooning Score: raw data” value (STAM mice (NASH); individual STAM mice) was 0 (7×) and 1 (3×), the “NAFLD Activity: Inflammation Score: raw data” value (STAM mice (NASH); individual STAM mice) was 1 (4×) and 2 (4×) and 3 (2×) and the “NAFLD Activity: Steatosis Score: raw data” value (STAM mice (NASH); individual STAM mice) was 1 (8×) and 0 (2×).
In the case of `CC(C)[C@H](N)C(=O)O` [VAL, valine], the “Procollagen Ia1 Secretion (Fold Change of 1X), Mean” value ([1]; first donor, 234 μM (baseline, reference)) is reported as 1.0000 fold, the “Procollagen Ia1 Secretion (Fold Change of 1X), Mean” value ([1]; first donor, 4684 μM) is reported as 1.1203 fold and the “Procollagen Ia1 Secretion (Fold Change of 1X), Mean” value ([1]; first donor, 11710 μM) is reported as 1.2069 fold. The “Procollagen Ia1 Secretion (Fold Change of 1X), Mean” value ([1]; first donor, 23420 μM) was 1.2139 fold, the “procollagen Iα1 secretion” value [1] was “significantly increased procollagen Iα1 secretion in only one of two donors” and the “Procollagen Ia1 Secretion (Fold Change of 1X), Mean” value ([1]; second donor, single amino acid, 234 μM (1X reference)) was 1.0000 fold change. The “Procollagen Ia1 Secretion (Fold Change of 1X), Mean” value ([1]; second donor, single amino acid, 4684 μM) was 1.2865 fold change, the “Procollagen Ia1 Secretion (Fold Change of 1X), Mean” value ([1]; second donor, single amino acid, 11710 μM) was 1.2877 fold change and the “Procollagen Ia1 Secretion (Fold Change of 1X), Mean” value ([1]; second donor, single amino acid, 23420 μM) was 1.3068 fold change. For the same molecule, the “Procollagen Ia1 Secretion (Fold Change of 1X), Mean” value ([1]; third donor, single amino acid, 234 μM (1X reference)) was 1.0000 fold change, the “Procollagen Ia1 Secretion (Fold Change of 1X), Mean” value ([1]; third donor, single amino acid, 4684 μM) was 1.0428 fold change and the “Procollagen Ia1 Secretion (Fold Change of 1X), Mean” value ([1]; third donor, single amino acid, 11710 μM) was 1.0498 fold change. For the same molecule, the “Procollagen Ia1 Secretion (Fold Change of 1X), Mean” value ([1]; third donor, single amino acid, 23420 μM) was 1.1139 fold change.

Reference: patent publication US20210275480A1, “COMPOSITIONS AND METHODS FOR THE REDUCTION OR TREATMENT OF FIBROSIS” (AXCELLA HEALTH INC., priority 2018, published 2021)
